Test results reported in ChEMBL document CHEMBL3045223, “Synthesis, nematicidal and antimicrobial properties of Bis-[4-methoxy-3-[3-(4-fluorophenyl)-6-(4-methylphenyl)-2(aryl)-tetrahydro-2H-pyrazolo[3,4-d]thiazol-5-yl]phenyl]methanes” (2009).
In brackets after ≈: the same amount, converted by molar mass. Activity calls are given as the source filed them. No cut-off for these calls is given here.

How the values were obtained:
Type in all cases: functional
[1] = system: Bacillus subtilis; experiment: Antibacterial activity against Bacillus subtilis MTCC 441 assessed as inhibition zones at 300 ug/disk at 37 degC for 24 hr; conditions: MTCC 441, 24 h, read-out: IZ
[2] = system: Trichophyton rubrum; experiment: Antifungal activity against Trichophyton rubrum IFO 9185 assessed as growth inhibition at 300 ug/disk at 37 degC for 48 hr; conditions: for zone of inhibition at 300 µg/disc: IFO 9185, 48 h, read-out: IZ
[3] = system: Ditylenchus myceliophagus; experiment: Nematicidal activity against Ditylenchus myceliophagus assessed as immobility; conditions: read-out: LD50 (the source's name)
[4] = system: Pseudomonas aeruginosa; experiment: Antibacterial activity against Pseudomonas aeruginosa MTCC 741 assessed as growth arrest at 37 degC for 24 hr; conditions: MTCC 741, 24 h
[5] = system: Candida albicans; experiment: Antifungal activity against Candida albicans ATCC 10231 assessed as growth inhibition at 37 degC for 48 hr; conditions: ATCC 10231, 48 h
[6] = system: Staphylococcus aureus; experiment: Antibacterial activity against Staphylococcus aureus MTCC 96 assessed as growth arrest at 37 degC for 24 hr; conditions: MTCC 96, 24 h
[7] = system: Chromobacterium violaceum; experiment: Antibacterial activity against Chromobacterium violaceum MTCC 2656 assessed as growth arrest at 37 degC for 24 hr; conditions: MTCC 2656, 24 h
[8] = system: Aspergillus fumigatus; experiment: Antifungal activity against Aspergillus fumigatus HIC 6094 assessed as growth inhibition at 300 ug/disc at 37 degC for 48 hr; conditions: for zone of inhibition at 300 µg/disc: HIC 6094, 48 h, read-out: IZ
[9] = system: Chromobacterium violaceum; experiment: Antibacterial activity against Chromobacterium violaceum MTCC 2656 assessed as inhibition zones at 300 ug/disk at 37 degC for 24 hr; conditions: MTCC 2656, 24 h, read-out: IZ
[10] = system: Trichophyton rubrum; experiment: Antifungal activity against Trichophyton rubrum IFO 9185 assessed as growth inhibition at 37 degC for 48 hr
[11] = system: Bacillus subtilis; experiment: Antibacterial activity against Bacillus subtilis MTCC 441 assessed as growth arrest at 37 degC for 24 hr; conditions: MTCC 441, 24 h
[12] = system: Pseudomonas aeruginosa; experiment: Antibacterial activity against Pseudomonas aeruginosa MTCC 741 assessed as inhibition zones at 300 ug/disk at 37 degC for 24 hr; conditions: MTCC 741, 24 h, read-out: IZ
[13] = system: Klebsiella aerogenes; experiment: Antibacterial activity against Enterobacter aerogenes MTCC 39 assessed as growth arrest at 37 degC for 24 hr; conditions: MTCC 39, 24 h
[14] = system: Lysinibacillus sphaericus; experiment: Antibacterial activity against Lysinibacillus sphaericus MTCC 11 assessed as growth arrest at 37 degC for 24 hr; conditions: MTCC 11, 24 h
[15] = system: Lysinibacillus sphaericus; experiment: Antibacterial activity against Lysinibacillus sphaericus MTCC 11 assessed as inhibition zones at 300 ug/disk at 37 degC for 24 hr; conditions: MTCC 11, 24 h, read-out: IZ
[16] = system: Trichophyton mentagrophytes; experiment: Antifungal activity against Trichophyton mentagrophytes IFO 40996 assessed as growth inhibition at 37 degC for 48 hr
[17] = system: Aspergillus fumigatus; experiment: Antifungal activity against Aspergillus fumigatus HIC 6094 assessed as growth inhibition at 37 degC for 48 hr
[18] = system: Trichophyton mentagrophytes; experiment: Antifungal activity against Trichophyton mentagrophytes IFO 40996 assessed as growth inhibition at 300 ug/disc at 37 degC for 48 hr; conditions: for zone of inhibition at 300 µg/disc: IFO 40996, 48 h, read-out: IZ
[19] = system: Caenorhabditis elegans; experiment: Nematicidal activity against Caenorhabditis elegans assessed as immobility; conditions: read-out: LD50 (the source's name)
[20] = system: Candida albicans; experiment: Antifungal activity against Candida albicans ATCC 10231 assessed as growth inhibition at 300 ug/disk at 37 degC for 48 hr; conditions: ATCC 10231, 48 h, read-out: IZ
[21] = system: Klebsiella aerogenes; experiment: Antibacterial activity against Enterobacter aerogenes MTCC 39 assessed as inhibition zones at 300 ug/disk at 37 degC for 24 hr; conditions: MTCC 39, 24 h, read-out: IZ
[22] = system: Staphylococcus aureus; experiment: Antibacterial activity against Staphylococcus aureus MTCC 96 assessed as inhibition zones at 300 ug/disc at 37 degC for 24 hr; conditions: MTCC 96, 24 h, read-out: IZ

SMILES | zone of inhibition at 300 µg/disc [1] [mm] | LC50 [3] [µg/mL] | MBC [4] [µg/mL] | MIC [4] [µg/mL] | MBC [5] [µg/mL] | MIC [5] [µg/mL] | MBC [6] [µg/mL] | MIC [6] [µg/mL] | MBC [7] [µg/mL] | MIC [7] [µg/mL] | zone of inhibition at 300 µg/disc [9] [mm] | MBC [11] [µg/mL] | MIC [11] [µg/mL] | zone of inhibition at 300 µg/disc [12] [mm] | MBC [13] [µg/mL] | MIC [13] [µg/mL] | MBC [14] [µg/mL] | MIC [14] [µg/mL] | zone of inhibition at 300 µg/disc [15] [mm] | LC50 [19] [µg/mL] | further results
COc1ccc(N2N=C3C(SC(c4cc(Cc5ccc(OC)c(C6SC7C(=NN(c8ccc(OC)cc8)C7c7ccc(F)cc7)N6c6ccc(Cl)cc6)c5)ccc4OC)N3c3ccc(Cl)cc3)C2c2ccc(F)cc2)cc1 (stereo not drawn) | 17 | 900 (≈ 815 µM) | 50 (≈ 45.3 µM) | 12.5 (≈ 11.3 µM) | 50 (≈ 45.3 µM) | 25 (≈ 22.6 µM) | 25 (≈ 22.6 µM) | 12.5 (≈ 11.3 µM) | 50 (≈ 45.3 µM) | 6.25 (≈ 5.66 µM) | 23 | 12.5 (≈ 11.3 µM) | 12.5 (≈ 11.3 µM) | 20 | 25 (≈ 22.6 µM) | 12.5 (≈ 11.3 µM) | 50 (≈ 45.3 µM) | 12.5 (≈ 11.3 µM) | 16 | 820 (≈ 743 µM) | inhibition zone (IZ) [2]: inactive; inhibition zone (IZ) [8]: inactive; MBC ([10]; IFO 9185, 48 h): 50 µg/mL (≈ 45.3 µM); MIC ([10]; IFO 9185, 48 h): 25 µg/mL (≈ 22.6 µM); MBC ([16]; IFO 40996, 48 h): 50 µg/mL (≈ 45.3 µM); MIC ([16]; IFO 40996, 48 h): 25 µg/mL (≈ 22.6 µM); MBC [17]: inactive; MIC [17]: inactive; inhibition zone (IZ) [18]: inactive; zone of inhibition at 300 µg/disc [20]: 14 mm; zone of inhibition at 300 µg/disc [21]: 21 mm; zone of inhibition at 300 µg/disc [22]: 28 mm
COc1ccc(Cc2ccc(OC)c(C3SC4C(=NN(Cc5ccccc5)C4c4ccc(F)cc4)N3c3ccc([N+](=O)[O-])cc3)c2)cc1C1SC2C(=NN(Cc3ccccc3)C2c2ccc(F)cc2)N1c1ccc([N+](=O)[O-])cc1 (stereo not drawn) | 15 | 190 (≈ 174 µM) | 50 (≈ 45.7 µM) | 12.5 (≈ 11.4 µM) | 25 (≈ 22.9 µM) | 12.5 (≈ 11.4 µM) | 50 (≈ 45.7 µM) | 12.5 (≈ 11.4 µM) | 12.5 (≈ 11.4 µM) | 6.25 (≈ 5.72 µM) | 13 | 12.5 (≈ 11.4 µM) | 6.25 (≈ 5.72 µM) | 10 | 25 (≈ 22.9 µM) | 12.5 (≈ 11.4 µM) | 50 (≈ 45.7 µM) | 12.5 (≈ 11.4 µM) | 21 | 190 (≈ 174 µM) | zone of inhibition at 300 µg/disc [2]: 11 mm; zone of inhibition at 300 µg/disc [8]: 16 mm; MBC [10]: inactive; MIC [10]: inactive; MBC [16]: inactive; MIC [16]: inactive; MBC [17]: inactive; MIC [17]: inactive; zone of inhibition at 300 µg/disc [18]: 13 mm; zone of inhibition at 300 µg/disc [20]: 19 mm; zone of inhibition at 300 µg/disc [21]: 19 mm; zone of inhibition at 300 µg/disc [22]: 19 mm
COc1ccc(Cc2ccc(OC)c(C3SC4C(=NN(C(C)C)C4c4ccc(F)cc4)N3c3ccc(Cl)cc3)c2)cc1C1SC2C(=NN(C(C)C)C2c2ccc(F)cc2)N1c1ccc(Cl)cc1 (stereo not drawn) | 12 | 520 (≈ 533 µM) | 25 (≈ 25.6 µM) | 25 (≈ 25.6 µM) | 25 (≈ 25.6 µM) | 12.5 (≈ 12.8 µM) | 25 (≈ 25.6 µM) | 12.5 (≈ 12.8 µM) | 25 (≈ 25.6 µM) | 12.5 (≈ 12.8 µM) | 16 | 25 (≈ 25.6 µM) | 12.5 (≈ 12.8 µM) | 13 | 50 (≈ 51.2 µM) | 25 (≈ 25.6 µM) | 50 (≈ 51.2 µM) | 25 (≈ 25.6 µM) | 11 | 670 (≈ 686 µM) | zone of inhibition at 300 µg/disc [2]: 11 mm; inhibition zone (IZ) [8]: inactive; MBC [10]: inactive; MIC [10]: inactive; MBC ([16]; IFO 40996, 48 h): 50 µg/mL (≈ 51.2 µM); MIC ([16]; IFO 40996, 48 h): 25 µg/mL (≈ 25.6 µM); MBC ([17]; HIC 6094, 48 h): 25 µg/mL (≈ 25.6 µM); MIC ([17]; HIC 6094, 48 h): 25 µg/mL (≈ 25.6 µM); zone of inhibition at 300 µg/disc [18]: 12 mm; zone of inhibition at 300 µg/disc [20]: 10 mm; zone of inhibition at 300 µg/disc [21]: 20 mm; zone of inhibition at 300 µg/disc [22]: 13 mm
COc1ccc(Cc2ccc(OC)c(C3SC4C(=NN(c5ccc(Cl)cc5)C4c4ccc(F)cc4)N3c3ccc(C)cc3)c2)cc1C1SC2C(=NN(c3ccc(Cl)cc3)C2c2ccc(F)cc2)N1c1ccc(C)cc1 (stereo not drawn) | 17 | 240 (≈ 224 µM) | 25 (≈ 23.3 µM) | 6.25 (≈ 5.83 µM) | 25 (≈ 23.3 µM) | 12.5 (≈ 11.7 µM) | 25 (≈ 23.3 µM) | 12.5 (≈ 11.7 µM) | 25 (≈ 23.3 µM) | 12.5 (≈ 11.7 µM) | 21 | 25 (≈ 23.3 µM) | 12.5 (≈ 11.7 µM) | 11 | 50 (≈ 46.6 µM) | 12.5 (≈ 11.7 µM) | 25 (≈ 23.3 µM) | 12.5 (≈ 11.7 µM) | 17 | 360 (≈ 336 µM) | zone of inhibition at 300 µg/disc [2]: 11 mm; zone of inhibition at 300 µg/disc [8]: 11 mm; MBC ([10]; IFO 9185, 48 h): 12.5 µg/mL (≈ 11.7 µM); MIC ([10]; IFO 9185, 48 h): 6.25 µg/mL (≈ 5.83 µM); MBC ([16]; IFO 40996, 48 h): 12.5 µg/mL (≈ 11.7 µM); MIC ([16]; IFO 40996, 48 h): 6.25 µg/mL (≈ 5.83 µM); MBC ([17]; HIC 6094, 48 h): 12.5 µg/mL (≈ 11.7 µM); MIC ([17]; HIC 6094, 48 h): 6.25 µg/mL (≈ 5.83 µM); zone of inhibition at 300 µg/disc [18]: 10 mm; zone of inhibition at 300 µg/disc [20]: 13 mm; zone of inhibition at 300 µg/disc [21]: 18 mm; zone of inhibition at 300 µg/disc [22]: 29 mm
